The text below walks through data of PubChem BioAssay AID1053147 (Broad Institute, 2014).

The assay has as its system HepG2 BODIPY-LDL uptake, imaging, fold induction. As to the kind of experiment: LDL uptake enhancers in HepG2, dose response, imaging, BODIPY-LDL, cherry-pick, set 2 (AID 1053147). As to conditions: active compounds read high.

Structures are written as SMILES.

Consider `CN1C(=O)c2cc(NC(=O)c3ccc(C(F)(F)F)cc3)ccc2OC[C@@H]2O[C@H](CC(=O)NC3Cc4ccccc4C3)CC[C@@H]21`, for which the fold induction x10 is 10.

Regarding `CN1C(=O)c2cc(NC(=O)c3ccc(C(F)(F)F)cc3)ccc2OC[C@@H]2O[C@@H](CC(=O)NC3Cc4ccccc4C3)CC[C@@H]21`, the fold induction x10 is 25.
